{"source": "paper PMC10385834", "about": "“Curcumin Stereoisomer, Cis-Trans Curcumin, as a Novel Ligand to A1 and A3 Adenosine Receptors” (Pharmaceuticals, 2023)", "key": {"[1]": {"molecular_target": "T1, A1AR (A1 adenosine receptor) (Homo sapiens, UniProt P30542)", "T1 construct": "gene ADORA1", "T1 sequence (P30542 1-326)": "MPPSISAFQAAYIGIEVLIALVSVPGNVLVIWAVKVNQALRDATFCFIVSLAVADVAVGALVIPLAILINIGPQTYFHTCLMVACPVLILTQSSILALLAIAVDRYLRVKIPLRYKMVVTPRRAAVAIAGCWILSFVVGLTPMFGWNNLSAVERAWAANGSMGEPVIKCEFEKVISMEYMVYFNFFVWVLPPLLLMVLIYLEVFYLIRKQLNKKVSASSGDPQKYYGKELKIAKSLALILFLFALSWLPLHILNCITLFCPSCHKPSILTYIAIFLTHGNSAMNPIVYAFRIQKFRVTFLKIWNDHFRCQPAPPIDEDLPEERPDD", "assay": "competition with fluorescent ligand CA200623 on transfected CHO-K1 cells; confirmed by confocal microscopy", "type": "cell-based"}, "[2]": {"molecular_target": "T2, A3AR (A3 adenosine receptor) (Homo sapiens, UniProt P0DMS8)", "T2 construct": "gene ADORA3", "T2 sequence (P0DMS8 1-318)": "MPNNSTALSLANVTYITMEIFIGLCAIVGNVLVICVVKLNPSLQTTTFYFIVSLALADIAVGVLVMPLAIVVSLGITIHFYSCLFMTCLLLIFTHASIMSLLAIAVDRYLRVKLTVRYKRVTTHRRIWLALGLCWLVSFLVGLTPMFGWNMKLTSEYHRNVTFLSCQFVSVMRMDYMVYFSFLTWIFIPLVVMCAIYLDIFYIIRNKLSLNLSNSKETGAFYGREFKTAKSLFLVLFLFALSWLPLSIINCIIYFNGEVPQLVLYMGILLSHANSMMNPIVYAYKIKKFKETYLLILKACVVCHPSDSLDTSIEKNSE", "assay": "competition with fluorescent ligand CA200623 on transfected CHO-K1 cells; confirmed by confocal microscopy", "type": "cell-based"}}, "data": [{"smiles": "COc1cc(/C=C\\C(=O)CC(=O)/C=C/c2ccc(O)c(OC)c2)ccc1O", "note": "[CTCUR, cis-trans curcumin]", "values": [{"measurement": "Ki", "setting": "[1]", "result": 306, "unit": "nM"}, {"measurement": "Ki", "setting": "[2]", "result": 400, "unit": "nM"}]}]}
